Experimental data reported in US6194378A, “Fibronectin peptides-based extracellular matrix for wound healing” (The Research Foundation of State University of New York, priority 1998, dated 2001).

How the values were obtained:
[1] = tested on: human adult dermal fibroblasts; assay: two-dimensional outmigration of fibroblasts from contracted collagen gels over protein coated surfaces; type: cell-based; conditions: for effect of synthetic peptide added to the outmigration assay on migration of fibroblasts onto dried FN: FN coated plates
Procedure: (§1) Primary cultures of human adult dermal fibroblasts, acquired from Marcia Simon (Living Skin Bank, SUNY at Stony Brook), the ATCC (Bethesda, Md.), or the NIA (Bethesda, Md.), are cultured in Dulbecco's modified Eagle's medium (DMEM, Life Technologies) containing 42 mM sodium bicarbonate and supplemented with 100 U/ml penicillin, 100 μg/ml streptomycin, and 10% fetal bovine serum (FBS, HyClone, Logan, Utah), at 37° C. and 5% CO2 /95% air in a humidified atmosphere. The cells are used between passages 4 and 12.
(§2) Fibroblast cultures at 80% confluence are harvested by treatment with 0.05% trypsin/0.01% EDTA. Trypsin is inactivated by addition of soy bean trypsin inhibitor in PBS containing 0.2% BSA. The cells are washed twice with DMEM+2% BSA and resuspended at a concentration of 1×10^6 cells/ml. The fibroblasts are mixed with neutralized collagen (Vitrogen 100, Celtrix Labs., Santa Clara, Calif.), 2% BSA, 30 ng/ml PDGF-BB, 30 μg/ml fibronectin, and concentrated DMEM so that the final concentration of DMEM and sodium bicarbonate is 1x. 600 μl of the cell mixture is added to the wells of a 24-well tissue culture plate, which has been precoated with 2% BSA. The collagen is allowed to polymerize at 37° C. The final concentration of collagen is 1.8 mg/ml and each gel contains 6×10^4 cells. After two hours incubation, the gels are gently detached from the plastic surface to allow contraction with the addition of 0.5 ml DMEM+2% BSA and 30 ng/ml PDGF-BB per well. The gels are incubated overnight at 37° C. in 100% humidity, 5% CO2 and 95% air.
(§3) Fibronectin, its fragments or recombinant domains were diluted with concentrated DMEM to the appropriate concentration. Aliquots of 450 μl protein solution are added to the wells of 24-well tissue culture plates (Becton-Dickinson, Lincoln Park, N.J.). After a 2 hour incubation at 37° C. in 5% CO2, plates were dried overnight at room temperature under sterile conditions.
Plates coated with dried proteins were washed once with PBS and incubated with 2% BSA for 1 hour at 37° C. to block nonspecific binding sites. After washing the plates three times with PBS, contracted-collagen gel organotypic constructs were attached to the coated plates. DMEM, 2% BSA and 30 ng/ml PDGF-BB was added to assay plates so that the medium was level with the top of the collagen gel.
For preparation of "gold standard" transmigration assays containing a dermal organotypic construct surrounded by a fibrin clot as previously described (Greiling and Clark 1997), dried fibrin fibril-coated dishes are washed once with PBS and fibroblast-contracted collagen gels are placed on the surface. Fibrinogen, at a final concentration of 300 μg/ml, is mixed with DMEM and 1.0 U/ml thrombin, added to the wells so that the solution is level with the top of the collagen gel, and allowed to clot at room temperature for 30 min. When needed, other supplements such as 30 ng/ml PDGF-BB are added to the mixture. […] All migration assays are quantified after a 24 hour incubation at 37° C. in 100% humidity, 5% CO2 and 95% air.
The number of migrated cells was quantified under a Nikon inverted phase microscope by visually counting identifiable cell nuclei located outside of the contracted collagen gel in the fibrin gel (transmigration assay) or on the matrix (outmigration assay). Within a given experiment each condition was run in triplicate and means ±SD calculated. […] Statistical differences among conditions can be determined by ANOVA.

corneal epithelial wound = conditions: cited from earlier work
[2] = tested on: human adult dermal fibroblasts; assay: fibroblast adhesion assay; type: cell-based
Procedure: as §1, §3
Assay plates are prepared as described under fibroblast migration assays. The assay for measuring fibroblast adhesion to matrix proteins are performed essentially as described (Gailit et al. 1993) except that the cell concentration is lowered to 100,000 cells/ml or 10,000 cells/well. […] The absorbance at 590 nm is measured with a dual wavelength microtiter plate reader (THERMOmax, Molecular Devices, Menlo Park, Calif.) and the reading corrected for light scattering by subtraction of the absorbance at 450 nm.

[3] = tested on: human adult dermal fibroblasts; assay: three-dimensional transmigration from collagen gel into fibrin gel; type: cell-based
Procedure: as §1, §2
For preparation of "gold standard" transmigration assays containing a dermal organotypic construct surrounded by a fibrin clot as previously described (Greiling and Clark 1997), dried fibrin fibril-coated dishes are washed once with PBS and fibroblast-contracted collagen gels are placed on the surface. Fibrinogen, at a final concentration of 300 μg/ml, is mixed with DMEM and 1.0 U/ml thrombin, added to the wells so that the solution is level with the top of the collagen gel, and allowed to clot at room temperature for 30 min. When needed, other supplements such as 30 ng/ml PDGF-BB are added to the mixture. For HA 3-dimensional transmigration, wells are coated overnight at 37° C. with an appropriate solution of HA. The next day a fibroblast-contracted collagen gel is placed on the HA-coated well in DMEM, with or without 30 ng/ml PDGF-BB, is added so that the solution is level with the top of the collagen gels. All migration assays are quantified after a 24 hour incubation at 37° C. in 100% humidity, 5% CO2 and 95% air.
The number of migrated cells was quantified under a Nikon inverted phase microscope by visually counting identifiable cell nuclei located outside of the contracted collagen gel in the fibrin gel (transmigration assay) or on the matrix (outmigration assay). Within a given experiment each condition was run in triplicate and means ±SD calculated. All experiments were repeated at least three times. Statistical differences among conditions can be determined by ANOVA.
The extracellular matrix of the present invention was tested by use of the in vitro model as described in U.S. patent application Ser. No. 08/723,789, which is hereby incorporated by reference. The basis of the in vitro model is a contracted collagen gel containing fibroblasts which acquire a tissue-like phenotype within the collagen matrix. Surrounding the collagen gel, or dermal equivalent, with a fibrin clot produces a simple inside-outside model of the early cutaneous wound (FIG. 1). Without an added stimulus, no more than a few of the normal adult human dermal fibroblasts within the collagen gel would migrate into the fibrin gel. […]

## peptide I: synthetic peptide from the heparin II binding domain of FN, SEQ ID NO:6 (YEKPGSPRREVVPRPRGV)
[1]
  effect of synthetic peptide added to the outmigration assay on migration of fibroblasts onto dried FN: inhibited the migration of fibroblasts onto dried FN in a dose-dependent manner
[1]; collagen coated assay plates
  effect of synthetic peptide on migration over collagen: inhibitory effect in a dose-dependent manner

## CS1: synthetic peptide from the IIICS segment of FN, SEQ ID NO:3 as tested
[1]
  effect of synthetic peptide added to the outmigration assay on migration of fibroblasts onto dried FN: slightly enhancing effect in the higher concentrations

## chondroitin sulfate
Corneal epithelial wound
  effect on wound closure: did not affect wound closure

## fibronectin [FN]
[1]
  effect of reduction and alkylation of FN dimer to the monomeric state on ability to mediate migration: did not affect
[1]; plates coated with 120 nmol/l protein, mean ± SD, triplicate, FN normalized to 100%
  percent migration of that observed on FN, no additional protein added to plates: 100 ± 2.7%
[2]
  effect of reduction and alkylation of FN dimer to the monomeric state on ability to mediate adhesion: did not affect
[3]; 30 μg/ml FN in each gel
  transmigration on inclusion of FN in the collagen gel and in the fibrin gel: restored transmigration to a normal level
[3]; FN added to fibrin gel
  transmigration on addition of FN to the FN-depleted fibrin gel: restored
[3]; FN added to fibrin gel, FN:fibrinogen ratio 1:10
  FN concentration giving optimal cell movement: 30 µg/mL
[3]; FN in both collagen gel and fibrin gel, 10, 30, or 100 μg/ml tested
  most effective FN concentration in each gel: 30 µg/mL
[3]; FN removed from fibrinogen by gelatin affinity chromatography, 30 ng/ml PDGF-BB
  decrease of fibroblast transmigration into the fibrin clot after removal of FN: about 80%
[3]; serum omitted, collagen gel contracted with PDGF-BB
  transmigration with FN-free collagen gels: no transmigration occurred
